Results published in ChEMBL document CHEMBL4351030, “Synthesis and biological evaluation of 3-carbamate smilagenin derivatives as potential neuroprotective agents” (2019).
Active and inactive are the calls of the source. The rule behind the calls is not given here.

Columns and labels:
[1] = test system: SH-SY5Y; assay: Neuroprotective activity against H2O2-induced oxidative stress in human SH-SY5Y cells assessed as cell viability at 1 mM preincubated for 2 hrs followed by H2O2 stimulation for 30 mins followed by further incubation for 24 hrs by MTT assay relative to control; format: functional; settings: read-out: Activity
[2] = test system: SH-SY5Y; assay: Neuroprotective activity against oxygen-glucose deprivation-induced cell damage in human SH-SY5Y cells assessed as increase in cell viability measured after 5.5 hrs of post OGD challenge by MTT assay; format: functional, cell-based
[3] = test system: SH-SY5Y; assay: Neuroprotective activity against H2O2-induced oxidative stress in human SH-SY5Y cells assessed as cell viability at 10 uM preincubated for 2 hrs followed by H2O2 stimulation for 30 mins followed by further incubation for 24 hrs by MTT assay relative to control; format: functional; settings: for viability at 10 µM: read-out: Activity
[4] = test system: RAW264.7; assay: Neuroprotective activity against LPS-induced oxidative stress in mouse RAW264.7 cells assessed as reduction in NO production at 10 uM preincubated for 30 mins followed by LPS stimulation for 20 hrs by Griess reagent based microplate reader assay relative to control; format: functional

CC(=O)N[C@@H](CS)C(=O)O [ACETYLCYSTEINE]
viability at 1000 µM [1]: 37.1%

C[C@@H]1CC[C@@]2(OC1)O[C@H]1C[C@H]3[C@@H]4CC[C@@H]5C[C@@H](OC(=O)N6CCN(Cc7ccc(Cl)cc7)CC6)CC[C@]5(C)[C@H]4CC[C@]3(C)[C@H]1[C@@H]2C
Activity [2]: Active | viability at 10 µM [3]: 34.8% | inhibition at 10 µM [4]: 15.2%

C[C@@H]1CC[C@@]2(OC1)O[C@H]1C[C@H]3[C@@H]4CC[C@@H]5C[C@@H](OC(=O)NCc6ccc(Cl)cc6)CC[C@]5(C)[C@H]4CC[C@]3(C)[C@H]1[C@@H]2C
Activity [2]: Active | viability at 10 µM [3]: 45.5% | inhibition at 10 µM [4]: 17.6%

C[C@@H]1CC[C@@]2(OC1)O[C@H]1C[C@H]3[C@@H]4CC[C@@H]5C[C@@H](OC(=O)N6CCN(Cc7ccc(C#N)cc7)CC6)CC[C@]5(C)[C@H]4CC[C@]3(C)[C@H]1[C@@H]2C
Activity [2]: Active | viability at 10 µM [3]: 40.5% | inhibition at 10 µM [4]: 23.5%

C[C@@H]1CC[C@@]2(OC1)O[C@H]1C[C@H]3[C@@H]4CC[C@@H]5C[C@@H](OC(=O)N(C)C)CC[C@]5(C)[C@H]4CC[C@]3(C)[C@H]1[C@@H]2C
viability at 10 µM [3]: 6.3%

COc1ccc(CN2CCN(C(=O)O[C@H]3CC[C@@]4(C)[C@H](CC[C@@H]5[C@@H]4CC[C@]4(C)[C@@H]6[C@H](C[C@@H]54)O[C@]4(CC[C@@H](C)CO4)[C@H]6C)C3)CC2)cc1
viability at 10 µM [3]: 4.8%

C[C@@H]1CC[C@@]2(OC1)O[C@H]1C[C@H]3[C@@H]4CC[C@@H]5C[C@@H](OC(=O)NCc6ccccc6)CC[C@]5(C)[C@H]4CC[C@]3(C)[C@H]1[C@@H]2C
viability at 10 µM [3]: 5.8%

C[C@@H]1CC[C@@]2(OC1)O[C@H]1C[C@H]3[C@@H]4CC[C@@H]5C[C@@H](OC(=O)N6CCN(Cc7ccccc7)CC6)CC[C@]5(C)[C@H]4CC[C@]3(C)[C@H]1[C@@H]2C
Activity [2]: Active | viability at 10 µM [3]: 36.9% | inhibition at 10 µM [4]: 18.3%

COc1ccc(CNC(=O)O[C@H]2CC[C@@]3(C)[C@H](CC[C@@H]4[C@@H]3CC[C@]3(C)[C@@H]5[C@H](C[C@@H]43)O[C@]3(CC[C@@H](C)CO3)[C@H]5C)C2)cc1
viability at 10 µM [3]: 17.9% | inhibition at 10 µM [4]: 9.2%

C[C@@H]1CC[C@@]2(OC1)O[C@H]1C[C@H]3[C@@H]4CC[C@@H]5C[C@@H](O)CC[C@]5(C)[C@H]4CC[C@]3(C)[C@H]1[C@@H]2C
viability at 10 µM [3]: 3.5%

Cc1ccc(CNC(=O)O[C@H]2CC[C@@]3(C)[C@H](CC[C@@H]4[C@@H]3CC[C@]3(C)[C@@H]5[C@H](C[C@@H]43)O[C@]3(CC[C@@H](C)CO3)[C@H]5C)C2)cc1
viability at 10 µM [3]: 29.2% | inhibition at 10 µM [4]: 6.8%

COc1cc(CN2CCN(C(=O)O[C@H]3CC[C@@]4(C)[C@H](CC[C@@H]5[C@@H]4CC[C@]4(C)[C@@H]6[C@H](C[C@@H]54)O[C@]4(CC[C@@H](C)CO4)[C@H]6C)C3)CC2)ccc1O
viability at 10 µM [3]: 10.3%

CC(C)CNC(=O)O[C@H]1CC[C@@]2(C)[C@H](CC[C@@H]3[C@@H]2CC[C@]2(C)[C@@H]4[C@H](C[C@@H]32)O[C@]2(CC[C@@H](C)CO2)[C@H]4C)C1
viability at 10 µM [3]: 9.2%

C[C@@H]1CC[C@@]2(OC1)O[C@H]1C[C@H]3[C@@H]4CC[C@@H]5C[C@@H](OC(=O)N6CCN(Cc7ccccc7O)CC6)CC[C@]5(C)[C@H]4CC[C@]3(C)[C@H]1[C@@H]2C
viability at 10 µM [3]: 38.4% | inhibition at 10 µM [4]: 7.02%

C[C@@H]1CC[C@@]2(OC1)O[C@H]1C[C@H]3[C@@H]4CC[C@@H]5C[C@@H](OC(=O)N6CCN(C)CC6)CC[C@]5(C)[C@H]4CC[C@]3(C)[C@H]1[C@@H]2C
Activity [3]: inactive

C[C@@H]1CC[C@@]2(OC1)O[C@H]1C[C@H]3[C@@H]4CC[C@@H]5C[C@@H](OC(=O)N6CCN(CCO)CC6)CC[C@]5(C)[C@H]4CC[C@]3(C)[C@H]1[C@@H]2C
Activity [3]: inactive
